Data reported in patent US8247569B2, “Cyclohexane derivative and pharmaceutical use thereof” (Toray Industries, Inc., priority 2008, dated 2012).
Where two headings read alike, the source gives them in different places.

Key:
[1] = system: mouse sciatic nerve-ligation model (Seltzer model); assay: mouse partial sciatic nerve ligation model (Seltzer model), von Frey test; settings: for von Frey total score compared to the vehicle group: 1 hour after oral administration, doses as in Table 11; for Score improvement rate: 1 hour after administration; for von Frey Total Score Observed 1 Hour after Oral Administration (mean ± standard error), Compound-administered group: n = 5 to 6
[2] = evaluation of safety using mice, 5-day repeated oral administration; assay type: in vivo; settings: for no-observed-adverse-effect-level: Crlj:CD1 (ICR) mice, repeated oral administration for 5 days, assumed value
Experimental: Crlj:CD1 (ICR) mice of 7 weeks old were subjected to repeated oral administration of Example 2-B or Comparative Example 29 for 5 days, and observation of clinical sign, measurement of body weight, hematology, blood chemistry, gross autopsy, measurement of organ weight and histopathology were carried out. Further, on Day 1 and Day 5 after the administration, TK measurement was carried out. Exposure to the respective compounds was confirmed.
The doses of Example 2-B were 0, 40, 200 and 1000 mg/kg/day, and those of Comparative Example 29 were 0, 30, 100 and 300 mg/kg/day. The solution to be administered was prepared using 0.5% aqueous methyl cellulose solution as a vehicle, such that the administration volume becomes 10 mL/kg.

[3] = human liver microsomal stability assay; assay type: in vitro ADME; settings: liver microsomes, pH 7.4, human liver microsomes 0.5 mg/mL, test compound 2 μmol/L, 37° C., 0-30 min
Experimental: (§1) A liver microsomal stability assay, which is known to be an in vitro assay for evaluation of the stability of a compound against hepatic metabolism, was carried out to evaluate the stability of Compound (I) against human and mouse hepatic metabolism.
(§2) A total of 4 times of experiments were carried out for the combinations of the compound of Example 2-B or the compound of Comparative Example 29 as the test compound and human liver microsomes (Xenotech) or mouse liver microsomes (Xenotech) as the liver microsomes.
The respective reagents to be used for the liver microsomal stability assay were prepared as follows. That is, an appropriate amount of D-glucose 6-phosphate disodium salt (hereinafter referred to as G6P) was dissolved in distilled water at 100 mmol/L, to prepare 100 mmol/L aqueous G6P solution. In 5 mL of distilled water, 1000 units of Glucose 6-phosphate dehydrogenase from Yeast (hereinafter referred to as G6PDH) was dissolved, to prepare 200 units/mL aqueous G6PDH solution. An appropriate amount of MgCl2 was dissolved in distilled water at 100 mmol/L, to prepare 100 mmol/L aqueous MgCl2 solution. To 500 mL of 200 mmol/L aqueous K2HPO4 solution, 200 mmol/L aqueous KH2PO4 solution (about 130 mL) was added, and pH was adjusted to 7.4, to prepare 200 mmol/L KH2PO4/K2HPO4 buffer pH7.4 (hereinafter referred to as 200 mmol/L PB). β-nicotinamide-adenine dinucleotide phosphate, reduced form, tetrasodium salt (hereinafter referred to as (NADPH) was dissolved in distilled water such that the NADPH content becomes 10 mmol/L based on the purity (Purity NADPH) in the assay data described in the attached document, to prepare 10 mmol/L aqueous NADPH solution.
The liver microsomal stability assay was carried out according to the following procedure. First, the reagents listed in Table 12 (excluding microsomes) were mixed together to prepare a reaction mixture, and the reaction mixture was aliquoted in 130 μL volumes to 4 wells (which play roles as the wells for the 0-minute reaction, well for the 30-minute reaction, well for the 20-minute reaction and well for the 10-minute reaction, respectively) in a 96-well tube plate (BM Equipment Co., Ltd; hereinafter referred to as plate). The entire plate was covered with a silicone cap, and the plate was subjected to preincubation by being soaked in a water bath at 37° C. for 10 minutes.
After the preincubation, 3.75 μL of 20 mg/mL microsome suspension+16.25 μL of distilled water (20 μL in total) were added to the well for the 30-minute reaction, and the plate was covered with the cap, followed by soaking the plate in a water bath at 37° C. to initiate the reaction.
Ten minutes after the beginning of the reaction, 3.75 μL of 20 mg/mL microsome suspension+16.25 μL of distilled water (20 μL in total) were added to the well for the 20-minute reaction, and 20 minutes after the beginning of the reaction, 3.75 μL of 20 mg/mL microsome suspension+16.25 μL of distilled water (20 μL in total) were added to the well for the 10-minute reaction. The reaction was further continued by keeping the plate soaked in the water bath at 37° C.
Thirty minutes after the beginning of the reaction, the plate was removed from the water bath, and 120 μL of acetonitrile was added to each well, followed by covering the plate with the cap, stirring the plate for 10 seconds with Direct Mixer, and stopping the reaction by 10 minutes of ice cooling. After the reaction was stopped, 3.75 μL of 20 mg/mL microsome suspension+16.25 μL of distilled water (20 μL in total) were added to the well for the 0-minute reaction.
The reaction liquid in each well was centrifuged at 4° C. at 2500 rpm for 10 minutes, and the supernatant was transferred to a glass-coated microplate (TOMSIC Plate+) to begin LC/MS/MS analysis. The conditions for the LC/MS/MS analysis were as follows: […]

[4] = mouse liver microsomal stability assay; assay type: in vitro ADME; settings: pH 7.4; mouse liver microsomes 0.5 mg/mL; test compound 2 μmol/L; 37° C., 0-30 min; read-out: Hepatic intrinsic clearance, Mouse
Experimental: as §1, §2
The respective reagents to be used for the liver microsomal stability assay were prepared as follows. That is, an appropriate amount of D-glucose 6-phosphate disodium salt (hereinafter referred to as G6P) was dissolved in distilled water at 100 mmol/L, to prepare 100 mmol/L aqueous G6P solution. In 5 mL of distilled water, 1000 units of Glucose 6-phosphate dehydrogenase from Yeast (hereinafter referred to as G6PDH) was dissolved, to prepare 200 units/mL aqueous G6PDH solution. An appropriate amount of MgCl2 was dissolved in distilled water at 100 mmol/L, to prepare 100 mmol/L aqueous MgCl2 solution. […]

[5] = pharmacokinetics (PK) test in mice; assay type: in vivo; settings: mouse, plasma, female CD1 (ICR) mice, fasted; for clearance: intravenous, read-out: total body clearance (converted); for bioavailability: oral vs intravenous administration, from dose-normalized AUC0-24 hr, read-out: bioavailability (BA)
Experimental: Example 2-B or Comparative Example 29 was orally administered to mice, and the plasma level after the administration was measured to study the influence of improvement of the metabolic stability in liver microsomes on the change in the plasma level of the compound.
Female CD1 (ICR) mice of 7 weeks old which had been fed ad libitum with pellets (Oriental Yeast Co., Ltd.) and tap water were fasted for 17 hours before the administration. Feeding to the mice was begun again 4 hours after the administration.
In the case of intravenous administration of the solution, the animal was fixed in a holder, and the administration was carried out from the tail vein without anesthesia, using a syringe with an injection needle (25 G) attached thereto. In the case of oral administration, a syringe with a feeding needle attached thereto was used without anesthesia to force the solution into the stomach.
In terms of the mice to which the solution was intravenously administered, blood was collected a total of 8 times from the jugular vein or heart 5, 15 and 30 minutes and 1, 2, 4, 8 and 24 hours after the intravenous administration. In terms of the mice to which the solution was orally administered, blood was collected a total of 8 times from the jugular vein or heart 15, 30 and 45 minutes and 1, 2, 4, 8 and 24 hours after the oral administration. Further, from the jugular vein or heart of mice to which the solution was not administered, blood was collected as a blank. The collected blood was centrifuged at 4° C. at 12000 rpm for 5 minutes, and the obtained mouse plasma and blank plasma were stored at about −20° C. until preparation of samples for analysis. […]
From the results of the LC/MS/MS analysis, a calibration curve was prepared using Analysis 1.4 (Applied Biosystems). Based on the LC/MS/MS analysis and the prepared calibration curve, the concentration in each measurement sample was calculated using Analysis 1.4. For 3 times each of the experiments by intravenous administration and oral administration, the mean plasma level at each time point was calculated, and PK analysis was carried out using the obtained values (FIG. 6 and FIG. 7; each plot indicates the mean plasma level at each time point and its ±standard deviation; i.v. indicates test data by intravenous administration; and p.o. indicates test data by oral administration). The PK parameter was calculated using WinNonlin (Pharsight) by analysis independent of the models (intravenous administration: Model 201, oral administration: Model 200). Further, the bioavailability (BA) was calculated by normalization by dividing AUC0-24 hr from the time point of the intravenous administration or oral administration to the time point of the final blood collection by the dose.

[6] = system: mouse acetic acid writhing model; assay: mouse acetic acid writhing model (nociceptive pain); assay type: in vivo; settings: male ddY mice, oral administration 45 min before 0.6% acetic acid i.p., dose suppressing 50% of writhing responses vs vehicle group, vehicle A or B
[7] = read-out: Human hepatic intrinsic clearance

Row | SMILES | microsomal CLint at 2 μmol/L [3, 7] [µL/min/mg] | no-observed-adverse-effect-level [2] | clearance [5] [mL/min/kg] | bioavailability [5] [%] | von Frey total score compared to the vehicle group [1] | ED50 ([6]; Mus musculus, read-out: ED50) [mg/kg] | also measured
1 | COc1ccc(-n2nc(C3(O)CCN(C(=O)N(C)O)CC3)c(F)c2-c2ccc(C)cc2)cc1 [Comparative Example 29, 4-(4-Fluoro-1-(4-methoxyphenyl)-5-(4-tolyl)-1H-pyrazol-3-yl)-1-(N-hydroxy-N-methylcarbamoyl)-4-piperidinol, reference compound] |  | less than 30 mg/kg/day | 94.5 | 54 |  |  | analgesic effect 3 hours after the oral administration (von Frey test) ([1]; positive controls, gabapentin 30 mg/kg oral, dose of Comparative Example 29 not given): drastically decreased; time of strongest analgesic effect after oral administration (von Frey test) ([1]; positive controls, gabapentin 30 mg/kg oral, dose of Comparative Example 29 not given, FIGS. 1 to 4): 1 h; microsomal CLint at 2 μmol/L ([3]; read-out: Hepatic intrinsic clearance, Human): 110 µL/min/mg; microsomal CLint at 2 μmol/L [4]: 267 µL/min/mg
2 | COc1ccc(-n2nc(C3(O)CCC(O)CC3)cc2-c2ccc(C)cc2)cc1 (stereo not drawn) [Example 2-B, 1-(1-(4-methoxyphenyl)-5-(p-tolyl)-1H-pyrazol-3-yl)cyclohexane-cis-1,4-diol] |  | 200 mg/kg/day | 16.2 | 88 |  |  | toxicity findings ([2]; mouse, in vivo, po, 1000 mg/kg/day): possibilities of induction of hepatotoxicity, effects on immune organs/tissues and induction of gastrointestinal toxicity were suggested; ED50 [6]: 1.40 mg/kg
3 | COc1ccc(-n2nc(C3(O)CCC(O)(C(F)(F)F)CC3)cc2-c2ccc(C)cc2)cc1 (stereo not drawn) [Example 62, 1-(1-(4-Methoxyphenyl)-5-(p-tolyl)-1H-pyrazol-3-yl)-4-(trifluoromethyl)cyclohexan-cis-1,4-diol] | 33.3 |  |  |  |  | 0.54 | analgesic effect 3 hours after the oral administration (von Frey test) ([1]; oral administration of Example 2-B and Example 62 in amounts of 0.3 and 1.0 mg/kg, respectively, FIG. 2, FIG. 3): a strong analgesic effect was maintained

More lines, main results first:

Row | microsomal CLint at 2 μmol/L [3, 7] [µL/min/mg] | SMILES | no-observed-adverse-effect-level [2] | clearance [5] [mL/min/kg] | bioavailability [5] [%] | von Frey total score compared to the vehicle group [1] | ED50 ([6]; Mus musculus, read-out: ED50) [mg/kg] | also measured
4 | 44.6 | COc1ccc(-n2nc(C3(O)CCC(O)CC3)c(Cl)c2-c2ccc(C)cc2)cc1 (stereo not drawn) [Example 59, 1-(4-Chloro-1-(4-methoxyphenyl)-5-(p-tolyl)-1H-pyrazol-3-yl)cyclohexan-cis-1,4-diol] |  |  |  | significantly improved | 9.92 | Score improvement rate ([1]; dose 10 mg/kg oral, vehicle A): 66%; von Frey Total Score Observed 1 Hour after Oral Administration (mean ± standard error), Compound-administered group ([1]; dose 10 mg/kg oral, […]): 1.7 ± 0.6
5 | 2.06 | COc1ccc(-n2nc(C3(O)CCC(C(=O)O)CC3)cc2-c2ccc(C)cc2)cc1 (stereo not drawn) [Example 64, 4-hydroxy-4-(1-(4-methoxyphenyl)-5-p-tolyl-1H-pyrazol-3-yl)-cis-cyclohexanecarboxylic acid] |  |  |  | significantly improved | 1.19 | Score improvement rate ([1]; dose 1 mg/kg oral, vehicle C): 57%; von Frey Total Score Observed 1 Hour after Oral Administration (mean ± standard error), Compound-administered group ([1]; dose 1 mg/kg oral, vehicle C (0.5% methyl cellulose, suspension)): 2.3 ± 0.5
